Reference: ChEMBL document CHEMBL3639321, “Triazolopyridine compounds as PIM kinase inhibitors” (2013)
pIC50: −log10 of the molar value.

Assays:
[1] = molecular target: Serine/threonine-protein kinase pim-3 (Rattus norvegicus, UniProt O70444); test: (§1) PIM-3 Enzyme Assay: The assay for the determination of PIM activity is based on the incorporation of [33P] ATP into PIM2tide substrate and capture of the radiolabeled peptide onto a Whatman P81 (phosphocellulose) filter plate. Assay mixtures contained 30 uM [gamma-33P] ATP (20 uCi/mL), 3.75 uM PIM2tide and 0.5 nM recombinant rat PIM-3 in place of PIM-1.
[2] = molecular target: Serine/threonine-protein kinase pim-2 (Homo sapiens, UniProt Q9P1W9); test: as §1, with “PIM-2” for “PIM-3”, “4” for “30”, “1.0” for “3.75”, “[…] PIM-2” for “0.5 nM recombinant rat PIM-3”
Sequence of Serine/threonine-protein kinase pim-2 (Q9P1W9 whole entry): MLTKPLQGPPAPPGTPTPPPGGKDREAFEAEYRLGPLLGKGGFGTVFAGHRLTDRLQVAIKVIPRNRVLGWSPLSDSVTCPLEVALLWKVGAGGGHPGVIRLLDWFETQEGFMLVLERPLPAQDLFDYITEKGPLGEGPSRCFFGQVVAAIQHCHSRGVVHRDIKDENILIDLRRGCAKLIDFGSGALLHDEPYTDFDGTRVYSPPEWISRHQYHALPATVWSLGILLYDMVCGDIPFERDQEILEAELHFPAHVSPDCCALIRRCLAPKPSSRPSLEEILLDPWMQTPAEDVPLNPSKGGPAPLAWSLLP

- pIC50 [1]: 6.35
- pIC50 [2]: ≤ 5.00
Structure (SMILES): CC1(C)CC(Nc2cccc3ccc(-c4nnc5ccccn45)nc23)CC(C)(C)N1
